Experimental findings from paper PMC11190223, “Identification of sulfakinin receptor regulating feeding behavior and hemolymph trehalose homeostasis in the silkworm, Bombyx mori” (Scientific Reports, 2024) are described below.

Where no end group is shown, it is not given here. [ ]: non-standard residue; d: D form. sY = N[C@@H](Cc1ccc(OS(=O)(=O)O)cc1)C(=O)O

Type in all cases: cell-based, Bombyx mori
Test [1] relates to BNGR-A9. Nature of the test: ERK1/2 phosphorylation (western blot), BNGR-A9-expressing HEK293 cells. (A western blot detects proteins with antibodies after separation by electrophoresis.)
Test [2] has as its target BNGR-A9. Put plainly: CRE-driven luciferase reporter assay, BNGR-A9. Particulars: 4 h, at least three independent experiments; for EC50: dose-response. An excerpt:
(§1) The entire coding region of BNGR-A9 (NM_001134272.1) was obtained by PCR and subsequently cloned into pEGFP-N1 and pCMV-Flag vectors using the primers listed in Table S1. The Flag-BNGR-A9 construct was generated for functional assays, including CRE-luciferase, calcium mobilization, and ERK phosphorylation assays, while BNGR-A9-EGFP was created for receptor visualization purposes. Additionally, for expression in the BmN cell system, the BNGR-A9 gene was inserted into the pIZT/V5-His vector. All constructs were validated by DNA sequencing.
(§2) HEK293 cells were cultured with Dulbecco’s Modified Eagle’s Medium (Gibco, NY, USA) supplied with 10% Fetal bovine serum (Gibco, NY, USA) in a 37 °C humidified incubator containing 5% CO2. BmN cells were maintained in TC 100 insect medium (AppliChem, Darmstadt, Germany) supplied with 10% Fetal bovine serum in a 28 °C incubator. Both HEK293 and BmN cells were transfected with X-tremeGENE (Roche, Mannheim, Germany) according to the manufacturer’s instruction.
HEK293 and BmN cells were transfected with the different Bombyx receptors (Flag-BNGR-A9, -A24, -A32, or A33 for HEK293 cells, and pIZT-BNGR-A9, -A24, -A32, or A33 for BmN cells) along with the corresponding CRE-reporter plasmid. When cell confluence reached 90–95%, they were treated with various concentrations of Bombyx mori neuropeptides, with or without forskolin. Following a 4-h incubation period, cells were lysed, and luciferase activities were determined using a firefly luciferase kit (Beyotime, Shanghai, China).
(§3) Data analysis was conducted using GraphPad Prism (San Diego, CA), with results presented as mean ± SEM. Statistical significance was assessed through Student’s t-test or two-way ANOVA with multiple comparisons, with p values below 0.05 denoted as significant (*p < 0.05, **p < 0.01, ***p < 0.001). Dose–response curves were generated via non-linear curve fitting. Adobe Photoshop was used to process images, ensuring uniform brightness and contrast settings across all conditions. All images and data provided represent findings from a minimum of three independent experiments.

Test [3] has as its system BNGR-A9. Nature of the test: Receptor internalization assay, BNGR-A9-EGFP. Particulars: BNGR-A9-EGFP stably expressing HEK293 cells; 100 nM, 30 min; fluorescence microscopy.
Source text: as §1
BNGR-A9-EGFP stably expressing HEK293 cells were seeded onto coverslips and incubated overnight under normal growth conditions. Subsequently, the cells were starved with fresh serum-free DMEM for 1 h and treated with either 100 nM BmsSK or BmnsSK. After a 30-min incubation period, the cells were washed three times with ice-cold PBS and fixed with 3% paraformaldehyde for 10 min at room temperature. The images were taken by a fluorescence microscopy (Leica, Germany).

The subject of test [4] is BNGR-A9. Nature of the test: Fura-2 AM-based Ca^2+ mobilization assay, BNGR-A9.
Source text: as §1, §2
To monitor the changes of intracellular calcium, Fura-2 AM (Dojindo, Kumamoto, Japan) was utilized as the calcium indicator, following the methodology outlined in a previous study. Briefly, HEK293 cells stably expressing Flag-BNGR-A9 were exposed to various concentrations of Bombyx mori neuropeptides and measured using a fluorescence spectrometer (Tecan Infinite 200 PRO). Calcium levels were determined by the ratio of fluorescence excitation at 340 nm to that at 380 nm. If necessary, cells were pre-treated with U73122, FR900359, or KT5720 for 30 min prior to the initiation of the experiment. For assays involving BmN cells expressing pIZT-BNGR-A9, the procedures were conducted at 28 °C, and HBSS was replaced with HBM (Hepes-Buffered Medium: 140 mM NaCl, 5 mM KCl, 1 mM MgCl2, 1.2 mM Na2HPO4, 5 mM NaHCO3, 10 mM glucose, and 20 mM HEPES–NaOH, CaCl2 (1 mM), pH 6.2).
as §3

Test [5] has as its system BNGR-A9. Put plainly: IP3 ELISA in BNGR-A9-expressing HEK293 cells. As to conditions: 1 μM, 1 h. As to the method: Figure 6 Bombyx sulfated-sulfakinin mediated activation of BNGR-A9 via Gαq signaling pathway. (A and B) Effects of Gαq inhibitor FR900359 (1 μM) on the CRE-driven luciferase activities in BNGR-A9 expressing HEK293 (A) and BmN (B) cells. BNGR-A9 stable transfected cells were pretreated with FR900359 (1 μM) for 30 min and challenged with 100 nM BmsSK for 4 h. (C) Accumulation of IP3 in HEK293 cells expressing BNGR-A9 in response to Bombyx neuropeptides was assessed. Cells were pre-treated with serum-free DMEM for 1 h, followed by stimulation with 1 μM of the indicated Bombyx neuropeptides for 1 h. The level of IP3 in the supernatant was then determined using the IP3 immunoassay detection kit. (D, E) Effects of Gαq/PLC inhibitors on Flag-BNGR-A9 mediated increase of intracellular Ca^2+ level. Flag-BNGR-A9 expressing HEK293 (D) and BmN (E) cells were pretreated with Gαq inhibitorFR900359 (1 μM), U73122 (5 μM) for 30 min, and incubated with Fura-2 AM for 30 min, followed by challenging with 100 nM BmsSK. (F, G) effects of protein kinase A (PKA) inhibitor KT5720 on BmsSK initiated Ca^2+ in Flag-BNGR-A9-expressing cells. […] After 30 min incubation with Fura-2 AM, the cells were treated with 100 nM BmsSK, and detected with a fluorescence spectrometer. […] Data were analyzed by using a Student’s t-test (*p < 0.05; **p < 0.01). […]
(In general: An ELISA detects its analyte on a solid surface through an enzyme-linked reagent.)

On to “BmsSK: Bombyx mori sulfated-sulfakinin, synthetic; sulfated version of GDDTFDD^8YGHLRF-NH2 (GDDTFDD[sY]GHLRF-NH2; N-terminus assumed; SMILES CC(C)C[C@H](NC(=O)[C@H](Cc1c[nH]cn1)NC(=O)CNC(=O)[C@H](Cc1ccc(OS(=O)(=O)O)cc1)NC(=O)[C@H](CC(=O)O)NC(=O)[C@H](CC(=O)O)NC(=O)[C@H](Cc1ccccc1)NC(=O)[C@@H](NC(=O)[C@H](CC(=O)O)NC(=O)[C@H](CC(=O)O)NC(=O)CN)[C@@H](C)O)C(=O)N[C@@H](CCCNC(=N)N)C(=O)N[C@@H](Cc1ccccc1)C(N)=O)”, for which the ERK1/2 phosphorylation result in the test with BNGR-A9 [1] (HEK293 cells expressing BNGR-A9, serum-starved 1 h) is “quick and dose-dependent increase in ERK1/2 phosphorylation”. In addition, the “Time of peak ERK1/2 phosphorylation” value in the test on BNGR-A9 [1] (HEK293 cells, 10 nM BmsSK time course (Fig. 7A)) worked out at 5 min. Also, the EC50 (commonly the concentration that produces a half-maximal response) at BNGR-A9 [2] (BmN cells stably expressing BNGR-A9) was 60 nM; at BNGR-A9 [2] (HEK293 cells stably expressing BNGR-A9), 73.3 nM; with BNGR-A9 [4] (BmN cells expressing BNGR-A9, Fura-2 AM, 28 °C, HBM pH 6.2, three independent experiments), 51.4 nM; in the test on BNGR-A9 [4] (HEK293 cells expressing BNGR-A9, Fura-2 AM, three independent experiments), 29 nM. Besides, the “Activation of BNGR-A9 (CRE-driven luciferase activity)” value in the test on BNGR-A9 [2] (HEK293 and BmN cells, 1 μM peptide, with or without forskolin (5 μM)) is recorded as “could activate BNGR-A9”. The Receptor internalization result in the test on BNGR-A9 [3] was “rapid and significant receptor redistribution within the cytoplasm”. The “Ca^2+ response” value in the test on BNGR-A9 [4] (1 μM peptide, Fura-2 AM, BNGR-A9-expressing HEK293 and BmN cells, three independent experiments) is on record as “triggered responses in BNGR-A9-expressing cells”. The “Ca^2+ response compared to BmnsSK” value in the test with BNGR-A9 [4] (BNGR-A9-expressing HEK293 and BmN cells, Fura-2 AM) is reported as “significantly greater Ca^2+ response”. Besides, the “Intracellular IP3 level” value in the test on BNGR-A9 [5] is given as “significant elevation”.
